Measured values: patent US7232798B2, “Neuroprotection and neuroegenisis by administering cyclic prolyl glycine” (priority 2001, dated 2007)

Legend:
[1] = tested on: cerebellar microexplants (P4); assay: Glutamate toxicity in P4 cerebellar microexplants and rescue by cPG; format: cell-based, Wistar rats
Method: Cerebellar Cell Culture Preparing and Coating of Cover Slips
Ten coverslips were placed into a large petri dish and washed in 70% alcohol for 5 minutes, then washed with Millipore H2O. The coverslips were air dried, then coated with Poly-D-Lysine (1 mg/ml stock solution in PBS, 90-100 μl) and incubated for 2 hours at 34 C.
Postnatal day 4 Wistar rats were used for the study. Rats were placed in ice for 1 minute, the heads were decapitated and the cerebellum removed on ice. […] The tissue was sieved through (125 μm pore size gaze) and centrifuged (2 minutes at 60 g) two times for a medium exchange into serum-free BSA-supplemented START V medium (Biochrom). The second centrifugation step was done with 1 ml of START V medium. The microexplants were reconstituted into 500 μl of START V medium and put on ice
Two hours after PDL-coating, the slides were washed with Millipore H2O and air dried. Each slide was placed into a small 35 mm petri dish and 40 μl of START V/cell suspension added. The tissue was incubated for 2 hours at 34 C (settlement period). START V-medium (1 ml) was then added to the petri dish and cultivated at 34 C/5% CO2/100% humidity for 48 hours. […] Finally, the microexplants were rinsed in PBS.
10 μl of toxin (L-glutamate-100 mM in Millipore water) was applied simultaneously with cPG (from bachem, 10 mM stock prepared in PBS and diluted to final concentrations between 1-100 nM) for Study 1. A delay in administration of cPG at 6 hours after glutamate treatment was performed for Study 2.

[2] = fetal sheep, cited from earlier work
[3] = tested on: 6-OHDA induced nigral-striatal lesion; assay: Apomorphine-induced rotations after 6-OHDA induced nigral-striatal lesion; format: in vivo, Wistar rats
Method: Twenty male Wistar rats (280-310 g) were used. After exposing the skull, 6-OHDA (8 μg in a base of 2 μl 0.9% saline containing 1% ascorbic acid) was administered into the right medial forebrain bundle (MFB) using co-ordinates AP +4.7 mm, R 1.6 mmv-8 mm under 3% halothane anaesthesia. 6-OHDA was injected through a 25 G needle connected via a polyethylene catheter to a 100 μl Hamilton syringe. The 6-OHDA was infused by a microdialysis infusion pump at a rate of 0.5 μl/min. The needle was left in the brain for a further 3 minutes before being slowly withdrawn. The skin was sutured with 2.0 silk and the rats were allowed to recover from anaesthesia. The rats were housed in a holding room with free access to food and water at all times except during behavioural testing.
Cyclic PG was dissolved in saline. Four different doses of cPG (0, 0.1 0.5 1 mg/kg, Bachem) were administered intraperitoneally 2 h post lesion.
At 7 days post-lesion, rats were injected with 0.1 mg/kg apomorphine and the number of contralateral rotations/hour was recorded and calculated using a computerised Rotameter (St Diego Instruments). Experimenter was blinded from the treatment groups.

[4] = tested on: rat Hippocampal Organotypic cultures exposed to NMDA; conditions: lower (1 μM) or higher (50-100 μM) concentrations reduced neuronal damage to a lesser extent; cited from earlier work

N[C@@H](CCC(=O)O)C(=O)O [Glutamate, L-glutamate, reference compound]
loss of cerebellum neurons ([1]; Study 1, glutamate treatment alone): 85%

insulin-like growth factor I [IGF-I]
dose at which all the neuroprotective effects are lost ([2]; 1 μg more neuroprotective than 100 ng): 10 µg | dose that usually killed the sheep fetus [2]: ≥ 100 µg

O=C1NCC(=O)N2CCC[C@@H]12 [cPG, cyclic Prolyl Glycine]
neuron number compared to the normal control group ([1]; a further lower dose of cPG): significant increase | glutamate-induced neurotoxicity ([1]; given either immediately or 6 hours after the glutamate treatment): completely prevented | number of contralateral rotations/hour ([3]; 1 mg cPG intraperitoneally 2 h post lesion, 7 days post-lesion, 0.1 mg/kg apomorphine, n=5, FIG. 5): 154±64.1 rotations/hour | reduction of functional deficit (apomorphine induced rotations) ([3]; highest dose tested (1 mg/kg), ns): 47%

glycine-proline-glutamate [GPE]
concentration giving the highest degree of neuroprotection [4]: 10 µM
